Results from patent US20100234349A1, “PHARMACEUTICAL COMBINATIONS OF A NICOTINE RECEPTOR MODULATOR AND A COGNITIVE ENHANCER” (priority 2006, published 2010).
“Also recorded” adds a separate entry of the source.

Test system: mouse
Test: mouse marble burying paradigm
Type: in vivo
Experimental: FIGS. 3A-3D show mouse marble burying 15 minutes after s.c. dosing of 1-(3-Pyridyl)-homopiperazine (Compound 1F of WO 99/21834) as cognition enhancer, and 30 minutes after p.o. dosing of 3-(3-Pyridin-3-yl-[1,2,4]oxadiazol-5-yl)-benzonitrile (Compound 4.15) as positive allosteric modulator: […]

With N#Cc1cccc(-c2nc(-c3cccnc3)no2)c1 [Compound 4.15, 3-(3-Pyridin-3-yl-[1,2,4]oxadiazol-5-yl)-benzonitrile] the “effect in mouse marble burying, positive allosteric modulator alone” value (alone, dosed p.o. at 3 and 10 mg/kg, 30 minutes after dosing (FIG. 3A)) was “no effect; also recorded: inactive”.

Work on c1cncc(N2CCCNCC2)c1 [Compound 1F of WO 99/21834, 1-(3-Pyridyl)-homopiperazine, reference compound] yielded an ED50 (Mus musculus, sc, 0.25 h, read-out: ED50, mouse marble burying) of 0.56 mg/kg.
